Measured values reported in PubChem BioAssay (NCI).
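96-well plates; 48 h exposure; 5 concentrations. Endpoints by linear interpolation between flanking doses. Not reached: highest tested concentration assigned. GI50 marks 50% less growth. TGI: total growth inhibition.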

How the values were obtained:
Assay in all cases: DTP human tumour cell line panel, 48 h
HT29 colon = tested on: HT29 colon
DU-145 prostate = tested on: DU-145 prostate
RPMI-8226 leukemia = tested on: RPMI-8226 leukemia
SF-268 CNS = tested on: SF-268 CNS
ACHN renal = tested on: ACHN renal
SR leukemia = tested on: SR leukemia
786-0 renal = tested on: 786-0 renal
IGROV1 ovarian = tested on: IGROV1 ovarian
SK-MEL-2 melanoma = tested on: SK-MEL-2 melanoma
SK-MEL-5 melanoma = tested on: SK-MEL-5 melanoma
SF-295 CNS = tested on: SF-295 CNS
LOX IMVI melanoma = tested on: LOX IMVI melanoma
SK-OV-3 ovarian = tested on: SK-OV-3 ovarian
MDA-MB-231 breast = tested on: MDA-MB-231 breast
HCT-116 colon = tested on: HCT-116 colon
A498 renal = tested on: A498 renal
SNB-75 CNS = tested on: SNB-75 CNS
SW-620 colon = tested on: SW-620 colon
MOLT-4 leukemia = tested on: MOLT-4 leukemia
KM12 colon = tested on: KM12 colon
HL-60(TB) leukemia = tested on: HL-60(TB) leukemia
HCT-15 colon = tested on: HCT-15 colon
NCI-H226 lung = tested on: NCI-H226 lung
MCF7 breast = tested on: MCF7 breast
NCI-H460 lung = tested on: NCI-H460 lung
NCI/ADR-RES ovarian = tested on: NCI/ADR-RES ovarian
SNB-19 CNS = tested on: SNB-19 CNS
U251 CNS = tested on: U251 CNS
OVCAR-8 ovarian = tested on: OVCAR-8 ovarian
MDA-MB-435 = tested on: MDA-MB-435
SF-539 CNS = tested on: SF-539 CNS
PC-3 prostate = tested on: PC-3 prostate
SN12C renal = tested on: SN12C renal
CCRF-CEM leukemia = tested on: CCRF-CEM leukemia
HCC-2998 colon = tested on: HCC-2998 colon
HS 578T breast = tested on: HS 578T breast
OVCAR-5 ovarian = tested on: OVCAR-5 ovarian
OVCAR-4 ovarian = tested on: OVCAR-4 ovarian
OVCAR-3 ovarian = tested on: OVCAR-3 ovarian
RXF 393 renal = tested on: RXF 393 renal
SK-MEL-28 melanoma = tested on: SK-MEL-28 melanoma
BT-549 breast = tested on: BT-549 breast
K-562 leukemia = tested on: K-562 leukemia
UACC-257 melanoma = tested on: UACC-257 melanoma
UACC-62 melanoma = tested on: UACC-62 melanoma
HOP-62 NSCLC = tested on: HOP-62 NSCLC
M14 melanoma = tested on: M14 melanoma
UO-31 renal = tested on: UO-31 renal
A549 NSCLC = tested on: A549 NSCLC
COLO 205 colon = tested on: COLO 205 colon
CAKI-1 renal = tested on: CAKI-1 renal
NCI-H522 lung = tested on: NCI-H522 lung

Brc1ccc(SCN(CSc2ccc(Br)cc2)Cc2ccccc2)cc1
GI50 (HT29 colon): 5.05 µM | TGI (HT29 colon): 18 µM | GI50 (DU-145 prostate): 6.12 µM | TGI (DU-145 prostate): 21 µM | GI50 (RPMI-8226 leukemia): 3.31 µM | TGI (RPMI-8226 leukemia): 10.5 µM | GI50 (SF-268 CNS): 2.31 µM | TGI (SF-268 CNS): 12.6 µM | GI50 (ACHN renal): 4.49 µM | TGI (ACHN renal): 19 µM | GI50 (SR leukemia): 2.77 µM | TGI (SR leukemia): 7.77 µM | GI50 (786-0 renal): 4.3 µM | TGI (786-0 renal): 15.5 µM | GI50 (IGROV1 ovarian): 2.64 µM | TGI (IGROV1 ovarian): 7.25 µM | GI50 (SK-MEL-2 melanoma): 6.06 µM | TGI (SK-MEL-2 melanoma): 19.9 µM | GI50 (SK-MEL-5 melanoma): 1.77 µM | TGI (SK-MEL-5 melanoma): 3.46 µM | GI50 (SF-295 CNS): 1.28 µM | TGI (SF-295 CNS): 3.49 µM | GI50 (LOX IMVI melanoma): 1.61 µM | TGI (LOX IMVI melanoma): 3.19 µM | GI50 (SK-OV-3 ovarian): 7.12 µM | TGI (SK-OV-3 ovarian): 51 µM | GI50 (MDA-MB-231 breast): 1.69 µM | TGI (MDA-MB-231 breast): 4.3 µM | GI50 (HCT-116 colon): 3.66 µM | TGI (HCT-116 colon): 14.4 µM | GI50 (A498 renal): 1.51 µM | TGI (A498 renal): 3.47 µM | GI50 (SNB-75 CNS): 2.28 µM | TGI (SNB-75 CNS): 10.9 µM | GI50 (SW-620 colon): 3.58 µM | TGI (SW-620 colon): 15.1 µM | GI50 (MOLT-4 leukemia): 2.37 µM | TGI (MOLT-4 leukemia): 6.82 µM | GI50 (KM12 colon): 2.67 µM | TGI (KM12 colon): 10.9 µM | GI50 (HL-60(TB) leukemia): 2.35 µM | TGI (HL-60(TB) leukemia): 5.36 µM | GI50 (HCT-15 colon): 3.56 µM | TGI (HCT-15 colon): 18.8 µM | GI50 (NCI-H226 lung): 1.93 µM | TGI (NCI-H226 lung): 4.39 µM | GI50 (MCF7 breast): 3.06 µM | TGI (MCF7 breast): 13.3 µM | GI50 (NCI-H460 lung): 2.78 µM | TGI (NCI-H460 lung): 12 µM | GI50 (NCI/ADR-RES ovarian): 4 µM | TGI (NCI/ADR-RES ovarian): 95.8 µM | GI50 (SNB-19 CNS): 2.69 µM | TGI (SNB-19 CNS): 23.5 µM | GI50 (U251 CNS): 2.02 µM | TGI (U251 CNS): 6.82 µM | GI50 (OVCAR-8 ovarian): 3.71 µM | TGI (OVCAR-8 ovarian): 17.9 µM | GI50 (MDA-MB-435): 3.1 µM | TGI (MDA-MB-435): 12.2 µM | GI50 (SF-539 CNS): 1.92 µM | TGI (SF-539 CNS): 3.88 µM | GI50 (PC-3 prostate): 2.34 µM | TGI (PC-3 prostate): 10.3 µM | GI50 (SN12C renal): 1.38 µM | TGI (SN12C renal): 14.2 µM | GI50 (CCRF-CEM leukemia): 2.1 µM | TGI (CCRF-CEM leukemia): 7.4 µM | GI50 (HCC-2998 colon): 11.5 µM | TGI (HCC-2998 colon): 25.5 µM | GI50 (HS 578T breast): 2.98 µM | TGI (HS 578T breast): > 100 µM | GI50 (OVCAR-5 ovarian): 2.89 µM | TGI (OVCAR-5 ovarian): 11.4 µM | GI50 (OVCAR-4 ovarian): 10.4 µM | TGI (OVCAR-4 ovarian): 87.8 µM | GI50 (OVCAR-3 ovarian): 3.54 µM | TGI (OVCAR-3 ovarian): 11.4 µM | GI50 (RXF 393 renal): 5.54 µM | TGI (RXF 393 renal): 20.4 µM | GI50 (SK-MEL-28 melanoma): 5.12 µM | TGI (SK-MEL-28 melanoma): 23.4 µM | GI50 (BT-549 breast): 1.75 µM | TGI (BT-549 breast): 3.9 µM | GI50 (K-562 leukemia): 5.44 µM | TGI (K-562 leukemia): 60.6 µM | GI50 (UACC-257 melanoma): 4.05 µM | TGI (UACC-257 melanoma): 17.5 µM | GI50 (UACC-62 melanoma): 3.01 µM | TGI (UACC-62 melanoma): 9.34 µM | GI50 (HOP-62 NSCLC): 3.2 µM | TGI (HOP-62 NSCLC): 14.2 µM | GI50 (M14 melanoma): 3.79 µM | TGI (M14 melanoma): 14.2 µM | GI50 (UO-31 renal): 1.93 µM | TGI (UO-31 renal): 8.64 µM | GI50 (A549 NSCLC): 2.41 µM | TGI (A549 NSCLC): 11 µM | GI50 (COLO 205 colon): 3.85 µM | TGI (COLO 205 colon): 13.7 µM | GI50 (CAKI-1 renal): 3.47 µM | TGI (CAKI-1 renal): 12.5 µM | GI50 (NCI-H522 lung): 2.43 µM | TGI (NCI-H522 lung): 5.62 µM
